Assay results taken from ChEMBL document CHEMBL1201862, “PubChem BioAssay data set” (2004).
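Briefly, cells in 96-well plates were exposed to five compound concentrations for 48 h, and endpoints were estimated by linear interpolation. GI50 = concentration required for 50% inhibition of growth.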 Active and inactive are the calls of the source. Cut-off read from the data, not from the text of the source: active = GI50 up to about 1.1 µM and inactive = higher.

Columns and labels:
Assay in all cases: DTP human tumour cell line panel, 48 h
[1] = tested on: SK-MEL-28
[2] = tested on: HOP-62
[3] = tested on: LOX IMVI
[4] = tested on: TK-10
[5] = tested on: OVCAR-3
[6] = tested on: IGROV-1
[7] = tested on: NCI-H460
[8] = tested on: DU-145
[9] = tested on: NCI-H226
[10] = tested on: MDA-MB-231
[11] = tested on: UACC-257
[12] = tested on: HCT-15
[13] = tested on: RXF 393
[14] = tested on: RPMI-8226
[15] = tested on: OVCAR-8
[16] = tested on: COLO 205
[17] = tested on: 786-0
[18] = tested on: EKVX
[19] = tested on: OVCAR-5
[20] = tested on: SR

SMILES | GI50 [1] | GI50 [2] | GI50 [3] | GI50 [4] | GI50 [5] | GI50 [6] | GI50 [7] | GI50 [8] | GI50 [9] | GI50 [10] | GI50 [11] | GI50 [12] | GI50 [13] | GI50 [14] | GI50 [15] | GI50 [16] | GI50 [17] | GI50 [18] | GI50 [19] | GI50 [20]
COc1cnc2cc(C(=O)O)c3ccccc3c2c1 | > 100 µM (inactive) | > 100 µM (inactive) | > 100 µM (inactive) | > 100 µM (inactive) | > 100 µM (inactive) | > 100 µM (inactive) | > 100 µM (inactive) | > 100 µM (inactive) | > 100 µM (inactive) | > 100 µM (inactive) | > 100 µM (inactive) | > 100 µM | > 100 µM (inactive) | 28.1 µM (inactive) | > 100 µM (inactive) | > 100 µM (inactive) | > 100 µM (inactive) | > 100 µM (inactive) | > 100 µM (inactive) | > 100 µM (inactive)
C[C@@H]1CC[C@@H]2[C@@H](C1)O[C@@H]([C@H](C)OCc1ccccc1)SC2(C)C | 32.1 µM (inactive) | 34.4 µM (inactive) | 18.4 µM (inactive) | 32.1 µM (inactive) |  | 41.8 µM (inactive) | 20.7 µM (inactive) | 37.3 µM (inactive) | 18.4 µM (inactive) | 19.7 µM (inactive) | 25.5 µM (inactive) | 27.8 µM | 17.6 µM (inactive) | 17.4 µM (inactive) | 31.5 µM (inactive) | 19.3 µM (inactive) | 21.2 µM (inactive) | 45 µM (inactive) | 16.3 µM (inactive) | 18.2 µM (inactive)
O=C(O)CN(CC(=O)O)Cc1cc(C#Cc2ccc(C#Cc3ccccc3)cc2)cc(CN(CC(=O)O)CC(=O)O)n1 | > 52 µM (inactive) | 18.4 µM (inactive) | 11.1 µM (inactive) | 17.5 µM (inactive) | 9.02 µM (inactive) | 18.7 µM (inactive) | 17.7 µM (inactive) | 17.3 µM (inactive) | 12.2 µM (inactive) | 7.11 µM (inactive) | 40.8 µM (inactive) | 5.98 µM | 15.7 µM (inactive) | 17.1 µM (inactive) | 11.5 µM (inactive) | 11.5 µM (inactive) | 13.1 µM (inactive) | 20.3 µM (inactive) | 26.4 µM (inactive) | 18.2 µM (inactive)
CS(=O)(=O)N1CC(CCl)c2ccc(NO)cc21 (stereo not given) | 19.1 µM (inactive) | 17.7 µM (inactive) | 13.3 µM (inactive) | 21.3 µM (inactive) | 11.7 µM (inactive) | 13.6 µM (inactive) | 14.9 µM (inactive) | 6.89 µM (inactive) | 30 µM (inactive) | 15.6 µM (inactive) | 19.5 µM (inactive) | 14.2 µM | 3.37 µM (inactive) | 4.5 µM (inactive) | 12.9 µM (inactive) | 18 µM (inactive) | 13.4 µM (inactive) | 16.7 µM (inactive) | 15.1 µM (inactive) | 2.3 µM (inactive)
CC(=O)O[C@H]1CC(C)(C)C(=C=C/C(C)=C/C=C/C=C/C=C(C)/C=C2C=C(/C=C/[C@@]34O[C@]3(C)C[C@@H](O)CC4(C)C)C(=O)O/2)[C@](C)(O)C1 | 23.6 µM (inactive) | 13.3 µM (inactive) |  | 0.959 µM (active) | 10.1 µM (inactive) | 2.88 µM (inactive) | 8.09 µM (inactive) | 33.2 µM (inactive) | 1.62 µM (inactive) | 31.1 µM (inactive) | 12.8 µM (inactive) | 11 µM | 4.01 µM (inactive) | 4.38 µM (inactive) | 3.76 µM (inactive) | 19.6 µM (inactive) | 16 µM (inactive) | > 10 µM (inactive) | 19.1 µM (inactive) | 6.76 µM (inactive)
Sc1ccc2ccccc2c1CNCc1ccccc1 | 21.5 µM (inactive) | 15.4 µM (inactive) | 5.78 µM (inactive) | 30.8 µM (inactive) | 13.6 µM (inactive) | 2.65 µM (inactive) | 24.1 µM (inactive) | 18.4 µM (inactive) | 3.08 µM (inactive) | 18.5 µM (inactive) | 26.6 µM (inactive) | 16.4 µM | 11.8 µM (inactive) | 12.5 µM (inactive) | 20.5 µM (inactive) | 13.7 µM (inactive) | 9.75 µM (inactive) | 22.9 µM (inactive) | 13.1 µM (inactive) | 3.44 µM (inactive)
COc1ccc(NC(=S)N/N=C(\c2ccccc2)c2ccccn2)cc1 | 2.56 µM (inactive) | 0.06 µM (active) | < 0.0152 µM (active) | 0.0244 µM (active) | < 0.01 µM (active) | < 0.01 µM (active) | 0.0931 µM (active) | 0.568 µM (active) | 0.0753 µM (active) | < 0.01 µM (active) | < 0.01 µM (active) | < 0.01 µM | 0.603 µM (active) | < 0.01 µM (active) | 0.0218 µM (active) | < 0.01 µM (active) | < 0.0267 µM (active) | < 0.0543 µM (active) | 0.0241 µM (active) | < 0.01 µM (active)
C=C(c1ccccc1)c1ccccc1-c1cc(-c2ccccc2)cc(-c2ccccc2)n1 | > 100 µM (inactive) | > 100 µM (inactive) | > 100 µM (inactive) | > 100 µM (inactive) | 76.6 µM (inactive) | > 100 µM (inactive) | > 100 µM (inactive) | > 100 µM (inactive) | > 100 µM (inactive) | > 100 µM (inactive) | > 100 µM (inactive) | > 100 µM | > 100 µM (inactive) | 58.1 µM (inactive) | > 100 µM (inactive) |  | > 100 µM (inactive) | > 100 µM (inactive) | > 100 µM (inactive) | > 100 µM (inactive)
CC1=CC(=O)CC(C)(C)C1/C=C/C(C)=C/C=C/C(C)=C/C=C/C=C(C)/C=C/C=C(C)/C=C/C1C(C)=CC(=O)CC1(C)C (stereo not given) | > 100 µM (inactive) | 42 µM (inactive) | 29.3 µM (inactive) | 77.1 µM (inactive) | 30.5 µM (inactive) | 31.3 µM (inactive) | 86.1 µM (inactive) | > 100 µM (inactive) | > 100 µM (inactive) | > 100 µM (inactive) | 61.2 µM (inactive) | 27 µM | > 100 µM (inactive) | 25.2 µM (inactive) | 20.1 µM (inactive) |  | 34.4 µM (inactive) | 92.9 µM (inactive) | 78.5 µM (inactive) | 66.1 µM (inactive)
O=c1c(Cl)cc2nc3ccccc3sc-2c1Cl | 18.1 µM (inactive) | 26.1 µM (inactive) | 12 µM (inactive) | 17.9 µM (inactive) | 1.98 µM (inactive) | 13.6 µM (inactive) | 18 µM (inactive) | 12.9 µM (inactive) | 16.5 µM (inactive) | 5.78 µM (inactive) | 2.75 µM (inactive) | 14.7 µM | 18.5 µM (inactive) | 4.25 µM (inactive) |  | 18.5 µM (inactive) | 21.2 µM (inactive) | 3.22 µM (inactive) | 24.7 µM (inactive) | 4.57 µM (inactive)
COC(=O)c1c([N+](=O)[O-])ncn1[C@H]1OC[C@@H](OC(C)=O)[C@@H](OC(C)=O)[C@@H]1OC(C)=O | > 100 µM (inactive) | > 100 µM (inactive) | > 100 µM (inactive) | > 100 µM (inactive) | > 100 µM (inactive) | > 100 µM (inactive) | > 100 µM (inactive) | > 100 µM (inactive) | > 100 µM (inactive) | > 100 µM (inactive) | > 100 µM (inactive) | > 100 µM | > 100 µM (inactive) |  | > 100 µM (inactive) | > 100 µM (inactive) | > 100 µM (inactive) | > 100 µM (inactive) | > 100 µM (inactive) | > 100 µM (inactive)
Cc1cc2nc3[nH]c4c(Cl)cc(Cl)cc4c3nc2cc1C | > 100 µM (inactive) | > 100 µM (inactive) | > 100 µM (inactive) | 17.3 µM (inactive) | > 100 µM (inactive) | > 100 µM (inactive) | > 100 µM (inactive) | 86.3 µM (inactive) | > 100 µM (inactive) | > 100 µM (inactive) |  | > 100 µM | 31.6 µM (inactive) | > 100 µM (inactive) | > 100 µM (inactive) | > 100 µM (inactive) | > 100 µM (inactive) | > 100 µM (inactive) | > 100 µM (inactive) | 96.8 µM (inactive)
O=C1NC(=O)C23C(=O)NC(=O)C12C1C=CC3CC1 (stereo not given) | > 10 µM (inactive) | > 10 µM (inactive) | > 10 µM (inactive) | > 10 µM (inactive) | > 10 µM (inactive) | > 10 µM (inactive) | > 10 µM (inactive) | > 10 µM (inactive) | > 10 µM (inactive) | > 10 µM (inactive) | > 10 µM (inactive) | > 10 µM | > 10 µM (inactive) | > 10 µM (inactive) | > 10 µM (inactive) | > 10 µM (inactive) | > 10 µM (inactive) | > 10 µM (inactive) |  | > 10 µM (inactive)
CC1(C)COC(c2cccc(C(O)c3ccc(Cl)cc3)c2)=N1 (stereo not given) | 29.2 µM (inactive) | 30.1 µM (inactive) | 15 µM (inactive) | 32.6 µM (inactive) | 20.1 µM (inactive) | 30.5 µM (inactive) | 29.4 µM (inactive) | 58.2 µM (inactive) | 14.8 µM (inactive) | 29.9 µM (inactive) |  |  | 15 µM (inactive) | 27.2 µM (inactive) | 16.1 µM (inactive) | 18 µM (inactive) | 23.9 µM (inactive) | 35.4 µM (inactive) | 17.9 µM (inactive) | 31.3 µM (inactive)
